# Results reported in US20240092756A1, “METHODS AND COMPOSITION FOR KRAS MODIFICATIONS” (2692372 ONTARIO, INC., priority 2020, published 2024).
# Biological target: KRAS G12C (Homo sapiens, UniProt P01116, G12C)
# Assay: SOS1-catalyzed KRAS coupled nucleotide exchange assay (Alpha technology)
# Format: biochemical
# Design: His; key: A: KRAS G12C bound and modulated
# Conditions: inhibition of SOS1 mediated KRAS nucleotide exchange
# Protocol: Method I: The inhibition of the SOS1-catalyzed nucleotide exchange activity of KRAS (e.g., KRAS G12C/C118A) was measured using Alpha (Amplified Luminescent Proximity Homogeneous Assay) technology. 20 nM GDP-bound human KRAS (G12C/C118A) protein was incubated with two-fold serially-diluted test compound or DMSO for 5 minutes at ambient temperature in reaction buffer (25 mM HEPES, pH 7.4; 10 mM MgCl2; 0.01% Triton X-100). For all subsequent steps, DTT was added to the reaction buffer at a final concentration of 1 mM. Next, GTP and SOS-1 were added in DTT-reaction buffer at final concentrations of 1.25 mM or 500 nM, respectively, and incubated at RT for 30 minutes. Finally, c-RAF RBD (50 nM final), Alpha glutathione donor beads (PerkinElmer; 20 μg/mL final), and AlphaLISAnickel chelate acceptor beads (PerkinElmer; 20 μg/mL final), all diluted in DTT-reaction buffer, were added. The reaction mixture was incubated at RT for 5 min, and then the plates were read on an EnVision® Multilabel Reader using the AlphaScreen protocol. Luminescence signal was measured at 570 nm following a 180 ms excitation at 680 nm. Signal intensity corresponded with the association of c-RAF RBD with GTP-bound KRAS G12C/C118A and was normalized to DMSO control.
# Method II: Inhibition of the SOS1-catalyzed nucleotide exchange activity of KRAS^G12C was measured using Alpha technology (PerkinElmer). 50 nM GDP-bound human KRAS^G12C protein was incubated with serially-diluted compound or DMSO for 2 hrs at RT in RBD-RAS binding buffer (BPSBioscience). 1 mM GTP and 500 nM SOS-1 were added to the reaction mixture and incubated at RT for 30 min. GST-tagged RBD-cRAF was then added to the reaction mixture at a final concentration of 2.5 nM and incubated at RT for 30 min. Finally, Alpha Glutathione acceptor beads and Nickel chelate donor beads (PerkinElmer) were diluted to 1:500 and 1:250, respectively, and added to the reaction mixture. The final reaction was incubated at RT for 30 min. Plates were read on a TECAN SPARK® Multiplate Reader. The luminescence signal was measured at 615 nm following excitation at 680 nm. Signal intensity was normalized to DMSO control.
row,Structure (SMILES),KRAS-SOS1 Nucleotide Exchange
1,"C[C@H]1CN(c2c(F)c(F)c(S(C)(=O)=O)c(F)c2F)CCN1c1ccnc2c(F)c(-c3c(O)cccc3F)c(Cl)cc12 (racemic) [Compound 24A, 2-(6-chloro-8-fluoro-4-((S)-2-methyl-4-(2,3,5,6-tetrafluoro-4-(methylsulfonyl)phenyl)piperazin-1-yl)quinolin-7-yl)-3-fluorophenol]",A
2,Cc1cccc(C)c1-c1cc2nccc(N3CC(Nc4c(F)c(F)c([S@+](C)[O-])c(F)c4F)C3)c2cc1Cl (racemic) [Compound 27A],A
3,"C[S+]([O-])c1c(F)c(F)c(NC2CN(c3ncnc4cc(-c5ccccc5F)c(Cl)cc34)C2)c(F)c1F (racemic) [Compound 28A, 1-(6-chloro-7-(2-fluorophenyl)quinazolin-4-yl)-N-(2,3,5,6-tetrafluoro-4-(methylsulfinyl)phenyl)azetidin-3-amine]",A
4,"C[C@H]1CN(c2c(F)c(F)c(S(C)(=O)=O)c(F)c2F)CCN1c1ccnc2c(F)c(-c3c(O)cccc3F)c(Cl)cc12 (single isomer, unassigned) [Compound 25A]",A
5,"C[C@H]1CN(c2c(F)c(F)c(S(C)(=O)=O)c(F)c2F)CCN1c1ccnc2c(F)c(-c3c(O)cccc3F)c(Cl)cc12 (single isomer, unassigned) [Compound 26A]",A
6,"O=S(=O)(NC1CN(c2ncnc3c2CCN(c2cccc4cccc(Cl)c24)C3)C1)c1c(F)c(F)c(F)c(F)c1F [Compound 21A, N-(1-(7-(8-chloronaphthalen-1-yl)-5,6,7,8-tetrahydropyrido[3,4-d]pyrimidin-4-yl)azetidin-3-yl)-2,3,4,5,6-pentafluorobenzenesulfonamide]",A
7,"Cc1cccc(C)c1-c1cc2nccc(N3CC(Nc4c(F)c(F)c(S(C)(=O)=O)c(F)c4F)C3)c2cc1Cl [Compound 22A, 1-(6-chloro-7-(2,6-dimethylphenyl)quinolin-4-yl)-N-(2,3,5,6-tetrafluoro-4-(methylsulfonyl)phenyl)azetidin-3-amine]",A
8,"CS(=O)(=O)c1c(F)c(F)c(NC2CN(c3ncnc4cc(-c5ccccc5F)c(Cl)cc34)C2)c(F)c1F [Compound 23A, 1-(6-chloro-7-(2-fluorophenyl)quinazolin-4-yl)-N-(2,3,5,6-tetrafluoro-4-(methylsulfonyl)phenyl)azetidin-3-amine]",A
9,"CSc1c(F)c(F)c(N2CCN(c3ccnc4c(F)c(-c5c(O)cccc5F)c(Cl)cc34)[C@@H](C)C2)c(F)c1F [Compound 29A, 2-(6-chloro-8-fluoro-4-((S)-2-methyl-4-(2,3,5,6-tetrafluoro-4-(methylthio)phenyl)piperazin-1-yl)quinolin-7-yl)-3-fluorophenol]",A
10,"O=S(=O)(c1c(F)c(F)c(F)c(F)c1OC(F)F)N1CCN(c2ncnc3c2CCN(c2cccc4ccccc24)C3)CC1 [Compound 30A, 4-(4-((2-(difluoromethoxy)-3,4,5,6-tetrafluorophenyl)sulfonyl)piperazin-1-yl)-7-(naphthalen-1-yl)-5,6,7,8-tetrahydropyrido[3,4-d]pyrimidine]",A
11,"C[C@H]1CN(c2c(F)c(F)c(F)c(F)c2[S+](C)[O-])CCN1c1ncnc2cc(-c3ccccc3F)c(Cl)cc12 (stereo partly drawn) [Compound 38A, 6-chloro-7-(2-fluorophenyl)-4-((2S)-2-methyl-4-(2,3,4,5-tetrafluoro-6-(methylsulfinyl)phenyl)piperazin-1-yl)quinazoline]",A
12,"Cc1cccc(C)c1-c1cc2nccc(N3CCN(Cc4c(F)c(F)c(F)c(F)c4S(C)(=O)=O)C[C@@H]3C)c2cc1Cl [Compound 45A, (S)-6-chloro-7-(2,6-dimethylphenyl)-4-(2-methyl-4-(2,3,4,5-tetrafluoro-6-(methylsulfonyl)benzyl)piperazin-1-yl)quinoline]",A
13,"CSc1c(F)c(F)c(F)c(F)c1N1CC(Nc2ncnc3cc(-c4ccccc4F)c(Cl)cc23)C1 [Compound 47A, 6-chloro-7-(2-fluorophenyl)-N-(1-(2,3,4,5-tetrafluoro-6-(methylthio)phenyl)azetidin-3-yl)quinazolin-4-amine]",A

# Tested on: phospho-ERK1/2 in MIA PaCa-2 cells (express KRAS G12C)
# Assay: ERK1/2 phosphorylation in MIA PaCa-2 cells
# Format: cell-based, human
# Design: key: X: KRAS G12C bound and modulated in cells
# Conditions: not given
# Protocol: MIA PaCa-2 cells were cultured in Dulbecco's Modified Eagle's Medium (Wisent) supplemented with 10% FBS, 2.5% horse serum, and 1% penicillin/streptomycin. Cells were seeded in 6-well plates at 500,000 cells/well and incubated at 37° C., 5% CO2 for 16 hours. Cells were treated with the indicated concentrations of compound or DMSO alone and incubated at 37° C., 5% CO2 for 6 or 24 hours. Conditioned media was discarded, and adherent cells were washed with PBS before they were scraped. Cell suspensions were centrifugated at 2,000 RPM for 5 minutes at 4° C. and supernatants were discarded. Cell pellets were resuspended with 1×RIPA buffer (Millipore) and incubated on ice for 15 minutes. Protein lysates were extracted by centrifugating at 20,000 RPM for 20 minutes at 4° C. Proteins were separated and total KRas protein levels were quantified by Simple Western Immunoassay (ProteinSimple) using the 2-40 kDa Separation Module for Jess according to the manufacturer's protocol, using a protein concentration of 0.5 μg/μl and antibodies targeting KRas (clone #4F3, Sigma) and GAPDH (clone #14C10, Cell Signaling) diluted to 1:10 and 1:1600, respectively, where the latter was used as a loading control. A 3:1 ratio of rabbit to mouse HRP-conjugated secondary antibodies was used for detection. KRas protein levels were quantified relative to GAPDH loading levels and subsequently normalized to the DMSO control. Phosphorylated ERK1/2 levels were quantified by Simple Western Immunoassay (ProteinSimple) using the Protein Normalization Assay Module for Jess according to the manufacturer's protocol using a protein concentration of 0.5 μg/μl and an antibody targeting phosphor-ERK1/2 (clone #D13.14.4E, Cell Signalling) diluted to 1:10. Phosphorylated ERK1/2 levels were normalized to the Jess Protein Normalization Reagent loading control and subsequently to the DMSO control.
# MIA PaCa-2 cells were cultured in Dulbecco's Modified Eagle's Medium (Wisent) supplemented with 10% FBS, 2.5% horse serum, and 1% penicillin/streptomycin. Cells were seeded in 96-well plates at a density of 25,000 cells/well and incubated at 37° C., 5% CO2 for 24 hours. The next day, cells were starved in cell culture media containing 1% FBS only at 37° C., 5% CO2 for 16 hours. Following starvation, serially-diluted compounds or DMSO alone were added to cells and incubated at 37° C., 5% CO2 for 1 or 3 hours. Prior to cell lysis, 25 ng/ml human epidermal growth factor (hEGF) (Sigma) was added to the cells and incubated at 37° C., 5% CO2 for 10 minutes. Conditioned media was discarded, and adherent cells lysed and basal ERK1/2 phosphorylation levels were measured using the Phospho-ERK (Thr202/Tyr204) Cellular HTRF kit (Perkin Elmer) according to the manufacturer's protocol. The fluorescent signal of the acceptor antibody at a wavelength of 665 nm was normalized to that of the donor antibody at 620 nm. HTRF ratios were plotted and relative IC50 values were obtained using Prism (GraphPad).
row,Structure (SMILES),"pERK - MIA PaCa-2 - (6 hours, 5 uM)"
1,"O=S(=O)(c1c(F)c(F)c(F)c(F)c1C(F)(F)F)N1CCN(c2ncnc3c2CCN(c2cccc4cccc(Cl)c24)C3)CC1 [Compound 32A, 7-(8-chloronaphthalen-1-yl)-4-(4-((2,3,4,5-tetrafluoro-6-(trifluoromethyl)phenyl)sulfonyl)piperazin-1-yl)-5,6,7,8-tetrahydropyrido[3,4-d]pyrimidine]",X
2,"O=S(=O)(c1c(F)c(F)c(F)c(F)c1C(F)(F)F)N1CCN(c2ncnc3c2CCN(c2cccc4ccccc24)C3)CC1 [Compound 33A, 7-(naphthalen-1-yl)-4-(4-((2,3,4,5-tetrafluoro-6-(trifluoromethyl)phenyl)sulfonyl)piperazin-1-yl)-5,6,7,8-tetrahydropyrido[3,4-d]pyrimidine]",X
3,"C[C@H]1CN(c2c(F)c(F)c(F)c(F)c2S(C)(=O)=O)CCN1c1ncnc2cc(-c3ccccc3F)c(Cl)cc12 [Compound 34A, (S)-6-chloro-7-(2-fluorophenyl)-4-(2-methyl-4-(2,3,4,5-tetrafluoro-6-(methylsulfonyl)phenyl)piperazin-1-yl)quinazoline]",X
4,"CS(=O)(=O)c1c(F)c(F)c(F)c(F)c1NC1CN(c2ncnc3cc(-c4ccccc4F)c(Cl)cc23)C1 [Compound 36A, 1-(6-chloro-7-(2-fluorophenyl)quinazolin-4-yl)-N-(2,3,4,5-tetrafluoro-6-(methylsulfonyl)phenyl)azetidin-3-amine]",X
5,"COc1cc(N2CCc3c(ncnc3N3CCN(S(=O)(=O)c4c(F)c(F)c(F)c(F)c4C(F)(F)F)CC3)C2)c2ccccc2c1 [Compound 40A, 7-(3-methoxy-1-naphthyl)-4-[4-[2,3,4,5-tetrakis(fluoranyl)-6-[tris(fluoranyl)methyl]phenyl]sulfonylpiperazin-1-yl]-6,8-dihydro-5H-pyrido[3,4-d]pyrimidine]",X
